Source: PubChem BioAssay (NCI)
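Following 48 hours of exposure in 96-well plates, responses at five concentrations were used to interpolate endpoints linearly. Definition used: TGI = concentration required for complete inhibition of growth.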

Tests used:
Experiment in all cases: NCI anticancer screen, dose series, 48 h
[1] = test system: 786-0 renal
[2] = test system: A498 renal
[3] = test system: A549 NSCLC
[4] = test system: ACHN renal
[5] = test system: CAKI-1 renal
[6] = test system: CCRF-CEM leukemia
[7] = test system: COLO 205 colon
[8] = test system: DLD-1 colon
[9] = test system: DMS 114 small cell lung
[10] = test system: DMS 273 small cell lung
[11] = test system: EKVX NSCLC
[12] = test system: HCC-2998 colon
[13] = test system: HCT-116 colon
[14] = test system: HCT-15 colon
[15] = test system: HOP-62 NSCLC
[16] = test system: HOP-92 NSCLC
[17] = test system: HT29 colon
[18] = test system: IGROV1 ovarian
[19] = test system: K-562 leukemia
[20] = test system: KM12 colon
[21] = test system: KM20L2 colon
[22] = test system: LXFL 529 NSCLC
[23] = test system: M14 melanoma
[24] = test system: M19-MEL melanoma
[25] = test system: MALME-3M melanoma
[26] = test system: MOLT-4 leukemia
[27] = test system: NCI-H226 lung
[28] = test system: NCI-H23 lung
[29] = test system: NCI-H460 lung
[30] = test system: NCI-H522 lung
[31] = test system: OVCAR-3 ovarian
[32] = test system: OVCAR-4 ovarian
[33] = test system: OVCAR-5 ovarian
[34] = test system: OVCAR-8 ovarian
[35] = test system: RPMI-8226 leukemia
[36] = test system: RXF-631 renal
[37] = test system: SF-268 CNS
[38] = test system: SF-539 CNS
[39] = test system: SK-MEL-2 melanoma
[40] = test system: SK-MEL-28 melanoma
[41] = test system: SK-MEL-5 melanoma
[42] = test system: SK-OV-3 ovarian
[43] = test system: SN12C renal
[44] = test system: SNB-19 CNS
[45] = test system: SNB-75 CNS
[46] = test system: SNB-78 CNS
[47] = test system: SR leukemia
[48] = test system: SW-620 colon
[49] = test system: U251 CNS
[50] = test system: UACC-257 melanoma
[51] = test system: UACC-62 melanoma
[52] = test system: UO-31 renal
[53] = test system: XF 498 CNS
[54] = test system: HL-60(TB) leukemia
[55] = test system: HOP-18 NSCLC
[56] = test system: LOX IMVI melanoma
[57] = test system: RXF 393 renal
[58] = test system: SF-295 CNS
[59] = test system: TK-10 renal
[60] = test system: DU-145 prostate
[61] = test system: MCF7 breast
[62] = test system: MDA-MB-231 breast
[63] = test system: MDA-MB-435
[64] = test system: MDA-N
[65] = test system: PC-3 prostate
[66] = test system: T-47D breast

Measured: TGI

CCOC(=O)C(=O)Nc1nc2ccc(C)cc2s1
> 100 µM: [1] | [2] | [3] | [4] | [5] | [6] | [7] | [8] | [9] | [10] | [11] | [12] | [13] | [14] | [15] | [16] | [17] | [18] | [19] | [20] | [21] | [22] | [23] | [24] | [25] | [26] | [27] | [28] | [29] | [30] | [31] | [32] | [33] | [34] | [35] | [36] | [37] | [38] | [39] | [40] | [41] | [42] | [43] | [44] | [45] | [46] | [47] | [48] | [49] | [50] | [51] | [52] | [53]

CCCCCC/C(CC(=O)CCC(=O)NCCc1ccccc1)=N\Nc1ccc([N+](=O)[O-])cc1[N+](=O)[O-]
56.4 µM: [9]
81.7 µM: [35]
60.3 µM: [26]
67.7 µM: [47]
> 100 µM: [1] | [2] | [3] | [4] | [5] | [7] | [8] | [10] | [11] | [12] | [13] | [14] | [55] | [15] | [16] | [17] | [18] | [19] | [20] | [21] | [56] | [22] | [23] | [24] | [25] | [27] | [28] | [29] | [30] | [31] | [33] | [34] | [57] | [36] | [37] | [58] | [38] | [39] | [40] | [41] | [42] | [43] | [44] | [46] | [48] | [59] | [49] | [50] | [51] | [52]
60.6 µM: [6]
70.5 µM: [54]

COc1ccc(/C=C2/CSC/C(=C/c3ccc(OC)c(OC)c3)C2=O)cc1OC
6.13 µM: [28]
25.8 µM: [53]
42.6 µM: [42]
5.49 µM: [32]
8.39 µM: [3]
6.63 µM: [24]
17.3 µM: [55]
18.4 µM: [37]
5.83 µM: [30]
7.61 µM: [39]
> 100 µM: [54] | [61] | [63] | [45] | [46]
10.6 µM: [38] | [52]
12.2 µM: [25]
7.09 µM: [29]
7.01 µM: [41]
16.9 µM: [50]
5.99 µM: [18]
5.15 µM: [31]
5.58 µM: [4]
9.07 µM: [60]
16.2 µM: [44]
9.76 µM: [40]
12.7 µM: [33]
10.8 µM: [22]
12.8 µM: [5]
15.3 µM: [2]
2.7 µM: [17]
4.94 µM: [66]
3.63 µM: [48]
11.7 µM: [65]
3.56 µM: [1]
2.72 µM: [49]
8.62 µM: [57]
6.41 µM: [36]
2.28 µM: [13]
43.7 µM: [16]
2.62 µM: [56]
8.89 µM: [64]
6.28 µM: [7] | [12]
2.19 µM: [34]
3.32 µM: [51]
42.8 µM: [11]
29.5 µM: [59]
10.5 µM: [23]
> 20.9 µM: [26]
3.46 µM: [14]
7.15 µM: [27]
3.26 µM: [20]
16.3 µM: [58]
8.18 µM: [62]
4.13 µM: [43]
3.09 µM: [10]
6.53 µM: [21]
8.72 µM: [15]

C=CCCC(=O)CC(=O)OCc1ccccc1
> 100 µM: [1] | [2] | [3] | [4] | [5] | [6] | [7] | [8] | [9] | [10] | [11] | [12] | [13] | [14] | [54] | [55] | [15] | [16] | [17] | [18] | [19] | [20] | [21] | [56] | [22] | [23] | [24] | [25] | [26] | [28] | [29] | [31] | [32] | [33] | [34] | [35] | [36] | [37] | [58] | [38] | [39] | [41] | [42] | [43] | [44] | [45] | [46] | [48] | [59] | [49] | [50] | [51] | [52] | [53]

COC(=O)C#CC(N)=O
> 31.6 µM: [21]
47.5 µM: [40]
36.4 µM: [6]
60.7 µM: [47]
99.1 µM: [59]
60.1 µM: [19]
> 94.9 µM: [34]
> 50.4 µM: [56]
> 81.1 µM: [55]
> 67.1 µM: [5]
40.6 µM: [16]
> 70.7 µM: [50]
> 100 µM: [1] | [2] | [3] | [4] | [7] | [8] | [9] | [10] | [11] | [12] | [13] | [14] | [15] | [17] | [18] | [20] | [22] | [24] | [27] | [28] | [29] | [30] | [31] | [32] | [33] | [57] | [36] | [37] | [58] | [38] | [39] | [41] | [42] | [43] | [44] | [45] | [46] | [49] | [51] | [52]
62.6 µM: [26]
19.1 µM: [25]
> 54.8 µM: [48]
42.2 µM: [23]
19.8 µM: [54]

O=C(N/C(=C\c1ccc(F)cc1)c1nc2ccccc2[nH]1)c1ccccc1
> 100 µM: [1] | [2] | [3] | [4] | [5] | [6] | [7] | [8] | [9] | [11] | [13] | [14] | [55] | [16] | [17] | [18] | [19] | [20] | [21] | [56] | [22] | [23] | [24] | [25] | [26] | [27] | [28] | [29] | [30] | [31] | [32] | [33] | [34] | [35] | [57] | [36] | [37] | [38] | [39] | [40] | [41] | [42] | [43] | [44] | [45] | [46] | [48] | [59] | [49] | [50] | [51] | [52] | [53]

CC1=C2C3OC(=O)C(C)C3C(O)C[C@@]2(C)C(=O)CC1 (stereo partly drawn)
> 100 µM: [1] | [2] | [3] | [4] | [5] | [6] | [7] | [8] | [9] | [10] | [11] | [12] | [13] | [14] | [54] | [55] | [15] | [16] | [17] | [18] | [20] | [21] | [56] | [22] | [23] | [24] | [25] | [26] | [27] | [29] | [30] | [31] | [32] | [33] | [34] | [35] | [57] | [36] | [37] | [58] | [38] | [40] | [41] | [42] | [43] | [44] | [45] | [46] | [47] | [48] | [59] | [49] | [50] | [51] | [52]
